How the values were obtained:
Type in all cases: cell-based, human
[1] = system: BJ fibroblasts; assay: Cell cycle analysis by flow cytometry, BJ fibroblasts; settings: Z conformer, concentration not given
Method: (§1) The BJ or PC-3 cells were treated as described previously, with the exception that 0.15 × 10^6 cells per well were seeded in 6-well plates. After 24 h of treatment, cells were harvested by trypsinization (Biowest, Nuaillé, France, L0931), washed twice, resuspended in PBS, and added to cold 70% ethanol for overnight fixation at −20 °C. Subsequently, cells were centrifuged and resuspended in PBS containing 5 µg/mL of propidium iodide in PBS (Sigma-Aldrich, St. Louis, MO, USA, 4170), 0.1% Triton X-100, and 10 µg/mL of DNAse-free RNAse (A&A Biotechnology, Gdansk, Poland, 1006-10) in the dark for 4 h at 37 °C. FACS analysis was performed using a FACSCanto II flow cytometer and FACSDiva, version 9.0 software (BD Biosciences, San Jose, CA, USA). Flow rate was set to about 1000 events/cells per second. Signals from at least 10,000 events per sample were captured. The percentages of PC-3 cells in cell cycle phases (G0/G1, S, and G2/M) were determined using ModFit LT 4.1.7 (Verity Software House, Topsham, ME, USA).

[2] = system: BJ fibroblasts; assay: MTS cell proliferation assay, BJ fibroblasts; settings: for IC50: Homo sapiens, Fibroblast
Method: (§2) Human BJ fibroblasts (American Type Cell Culture Collection, Manassas, VA, USA, CRL-2522) and human prostate cancer cell line PC-3 (American Type Cell Culture Collection, Manassas, VA, USA, CRL-1435), derived from bone metastases, were routinely grown in […]) Medium (ThermoFisher, Waltham, MA, USA, 21127-022) and supplemented with heat-inactivated 10% Fetal Bovine Serum (Biowest, France, […]) and 1% antibiotic solution (Biowest, Nuaillé, France, L0022), in a humidified 5% CO2 atmosphere at 37 °C. Cells were used between 3 and 20 passages. The 96-well plates were prepared by seeding 5 × 10^3 or 2.5 × 10^3 cells per well, for 24 and 48 h treatments, respectively, with at least five technical and two biological repeats. […] The cells were treated with either the Z conformer of 17j, with continuous illumination with 525 nm light, or the E conformer. The Z conformer was prepared by illuminating its DMSO solution with 525 nm light overnight. The cell proliferation was analyzed with CellTiter Aqueous One Solution Cell Proliferation MTS (3-(4,5-dimethylthiazol-2-yl)-5-(3-carboxymethoxyphenyl)-2-(4-sulfophenyl)-2H-tetrazolium) Assay (Promega, Madison, WI, USA, G5430) after 24 or 48 h of treatment. The absorbance was measured at 490 and 670 nm with FLUOStar Omega plate reader (BMG LABTECH GmbH, Ortenberg, Germany). The statistical analysis was performed within R 4.5.1 project. […] The log-logistic four parametric model (4PL), with the lower limit boundary set to 0 and group fitting, was used, as available in the drc package, to fit cell proliferation data. The residuals were checked for normality with QQ and density plots and considered as sufficiently normally distributed. The assessment metrics for model goodness of fit were performed with functions available in the drc package and with custom ones. When appropriate, the delta method was applied to obtain error of central tendency. To assess the goodness of fit for each of the biological replicates, deviance R^2 (DR^2) was calculated and assessed. […] The DR^2 was calculated according to the following Equation: 1 - (Dres/Dnull), where Dres-residual deviance and Dnull-null deviance (deviance of the model with mean as a predicted value). The null hypothesis was assessed with the two-way ANOVA with Tukey's post hoc test for multiple comparisons or with the two-way t-test when only two groups were compared. The differences in the cell cycle percentages were assessed with the two-way ANOVA with Tukey's post hoc test.

[3] = system: PC-3 cells; assay: MTS cell proliferation assay, PC-3; settings: for IC50: Homo sapiens
Method: as §2, with “The residuals were checked for normality with QQ and density plots and considered as sufficiently normally distributed.” left out

[4] = system: PC-3 cells; assay: Cell cycle analysis by flow cytometry, PC-3; settings: Z conformer, 24 h; for percentage of cells in the G2/M phase: control 26.5%
Method: as §1

- IC50 difference between PC-3 and BJ cells ([3]; E conformer): 2.2 fold
- IC50 ([3]; PC-3, 24 h, E conformer, 24 h incubation): 14.6 ± 1 µM
- IC50 ([3]; PC-3, 24 h, Z conformer, 525 nm illumination, 24 h treatment): 12 ± 4.42 µM
- IC50 ([3]; PC-3, 48 h, E conformer, 48 h incubation): 5.8 ± 0.8 µM
- IC50 ([3]; PC-3, 48 h, Z conformer, 525 nm illumination, 48 h treatment): 4.75 ± 1 µM
Compound: COc1cc(/C=C/C(=O)c2cccc(/N=N/c3c(F)cccc3F)c2)cc(OC)c1 [Compound 17j]
- cells undergoing the G0/G1 phase ([1]; decrease from 86.4): 51.5%
- cells in the S phase ([1]; increase from 0.4): 8%
- cells in the G2/M phase ([1]; increase from 11.9): 15.6%
- growth inhibition (normalized asymptote) ([2]; E conformer, 48 h): 5.3 ± 1.2%
- IC50 ([2]; 24 h, E conformer, 24 h treatment): 6.59 ± 0.38 µM
- IC50 ([2]; 24 h, Z conformer, 24 h treatment): 10.1 ± 1.4 µM
- IC50 ([2]; 48 h, E conformer, 48 h treatment): 2.66 ± 0.15 µM
- IC50 ([2]; 48 h, Z conformer, 48 h treatment): 4.02 ± 0.39 µM
- growth inhibition (normalized asymptote) ([2]; Z conformer, 24 h): 18.7 ± 9.7%
- growth inhibition (normalized asymptote) ([2]; Z conformer, 48 h): 13.3 ± 6.1%
- normalized asymptote (normalized limit) ([3]; E conformer, 24 h): 50.0 ± 9.9%
- normalized asymptote (normalized limit) ([3]; E conformer, 48 h): 15.0 ± 0.2%
- normalized asymptote (ratio of lower to upper asymptote) ([3]; Z conformer, 24 h): 44.9 ± 3.7%
- normalized asymptote (ratio of lower to upper asymptote) ([3]; Z conformer, 48 h): 0.9 ± 0.9%
- percentage of cells in the G2/M phase ([4]; 20 µM): 30.2%
- percentage of cells in the S phase ([4]; 30 µM): 28.8%
- percentage of cells in the G2/M phase ([4]; 30 µM): 37.0%
- percentage of cells in the S phase ([4]; 40 µM): 31%
- percentage of cells in the G2/M phase ([4]; 40 µM): 32.1%
